Laboratory results reported in patent US20230348369A1 (Cytokinetics, Inc., priority 2020, published 2023).
Where two headings read alike, the source gives them in different places.

Target: human NAMPT (Homo sapiens, UniProt P43490)
Assay: Human recombinant enzyme assay (NMN fluorescence biochemical assay, activation of NAMPT)
Summary of the method: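 NMN production is detected fluorometrically (Ex 355/Em 460 nm) 40 min after acetophenone, KOH and formic acid derivatization. Reactions ran 60 min at ambient temperature: 6 nM human NAMPT, nicotinamide 150 μM, PRPP 20 μM, ATP 2.5 mM, buffered at pH 7.2 with 50 mM HEPES plus DTT, CHAPS, NaCl and 100 mM MgCl2.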

[1] = Table A, human recombinant NAMPT, NMN formation, 60 min
[2] = Table A, human recombinant NAMPT, NMN formation, 60 min, read-out: EC50 Human

Sequence of human NAMPT (P43490 whole entry): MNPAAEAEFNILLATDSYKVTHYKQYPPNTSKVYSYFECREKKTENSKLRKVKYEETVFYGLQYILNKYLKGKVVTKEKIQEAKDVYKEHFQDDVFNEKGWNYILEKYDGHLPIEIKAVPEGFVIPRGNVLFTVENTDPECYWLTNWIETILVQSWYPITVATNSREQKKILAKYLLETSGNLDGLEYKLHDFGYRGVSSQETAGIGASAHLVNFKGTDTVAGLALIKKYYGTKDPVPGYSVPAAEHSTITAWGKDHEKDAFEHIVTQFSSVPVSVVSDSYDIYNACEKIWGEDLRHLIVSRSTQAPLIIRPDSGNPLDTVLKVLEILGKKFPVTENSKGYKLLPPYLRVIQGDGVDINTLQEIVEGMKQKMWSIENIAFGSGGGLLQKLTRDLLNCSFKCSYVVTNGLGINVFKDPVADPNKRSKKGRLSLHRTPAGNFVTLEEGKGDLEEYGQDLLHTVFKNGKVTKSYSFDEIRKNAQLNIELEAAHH

AC1.4 Human [1] | EC50 [2] | SMILES | EC50 | EC50 (read-out: EC50 Human, Table A, human recombinant NAMPT, NMN formation, 60 min)
7.9 µM | 38.3 µM | CC(C)(C)OC(=O)N1CC[C@]2(C1)C[C@H](NC(=O)NCc1ccc(Cl)cc1)C2 [Compound 152, tert-butyl (2s,4r)-2-(3-(4-chlorobenzyl)ureido)-6-azaspiro[3.4]octane-6-carboxylate] | – | –
1.8 µM | 33.3 µM | COc1ccc(CNC(=O)NC2CC3(C2)CN(C(=O)C(C)(C)c2ccccc2)C3)cc1 [Compound 142, 1-(4-methoxybenzyl)-3-(2-(2-methyl-2-phenylpropanoyl)-2-azaspiro[3.3]heptan-6-yl)urea] | – | –
2.3 µM | 2.7 µM | COc1ccc(CNC(=O)NC2CC3(CC(Cc4ccc(C)cc4)C3)C2)cc1 (centres unmarked) [Compound 334, 1-(4-methoxybenzyl)-3-(6-(4-methylbenzyl)spiro[3.3]heptan-2-yl)urea] | – | –
17.1 µM | 18.2 µM | O=C(NCc1ccc(Cl)cc1)NC1CC2(C1)CC(NC(=O)c1cccc(O)c1)C2 (centres unmarked) [Compound 200, N-(6-(3-(4-chlorobenzyl)ureido)spiro[3.3]heptan-2-yl)-3-hydroxybenzamide] | – | –
3.7 µM | 13 µM | COc1ccc(CNC(=O)NC2CC3(C2)CC(C(=O)N[C@@H]2CCc4ccccc42)C3)cc1 (stereo partly drawn) [Compound 91, (R)-N-(2,3-dihydro-1H-inden-1-yl)-6-(3-(4-methoxybenzyl)ureido)spiro[3.3]heptane-2-carboxamide] | – | –
2.1 µM | 22.5 µM | O=C(NCc1ccc(Cl)cc1)NC1CC2(CC(CN3CCC[C@@H]3c3cccnc3)C2)C1 (stereo partly drawn) [Compound 239, (R)-1-(4-chlorobenzyl)-3-(6-((2-(pyridin-3-yl)pyrrolidin-1-yl)methyl)spiro[3.3]heptan-2-yl)urea] | – | –
13.8 µM | 53.3 µM | COc1ccc(CNC(=O)NC2CC3(C2)CN(C(=O)C2CCCc4ccccc42)C3)cc1 (centres unmarked) [Compound 137, 1-(4-methoxybenzyl)-3-(2-(1,2,3,4-tetrahydronaphthalene-1-carbonyl)-2-azaspiro[3.3]heptan-6-yl)urea] | – | –
3.0 µM | 29.7 µM | COC(=O)c1cccc(C(=O)N2CC3(CC(NC(=O)NCc4ccc(OC)cc4)C3)C2)c1 [Compound 181, methyl 3-(6-(3-(4-methoxybenzyl)ureido)-2-azaspiro[3.3]heptane-2-carbonyl)benzoate] | – | –
5.0 µM | 6.6 µM | Cc1ccc(C(=O)N(C)CC2CC3(C2)CC(NC(=O)NCc2ccc(Cl)cc2)C3)cn1 (centres unmarked) [Compound 248, N-((6-(3-(4-chlorobenzyl)ureido)spiro[3.3]heptan-2-yl)methyl)-N,6-dimethylnicotinamide] | – | –
1.1 µM | 40.6 µM | COc1ccc(CNC(=O)NC2CC3(C2)CC(C(=O)NCC(C)(C)c2ccccc2F)C3)cc1 (centres unmarked) [Compound 55, N-(2-(2-fluorophenyl)-2-methylpropyl)-6-(3-(4-methoxybenzyl)ureido)spiro[3.3]heptane-2-carboxamide] | – | –
0.6 µM | 47.5 µM | NC(=O)c1ccc(CNC(=O)NC2CC3(C2)CN(C(=O)c2ccc(Cl)cc2)C3)cc1 [Compound 224, 4-((3-(2-(4-chlorobenzoyl)-2-azaspiro[3.3]heptan-6-yl)ureido)methyl)benzamide] | – | –
4.7 µM | 52.1 µM | COc1ccc(CNC(=O)NC2CC3(C2)CC(C(=O)N2CCC2c2ccccc2)C3)cc1 (centres unmarked) [Compound 48, 1-(4-methoxybenzyl)-3-(6-(2-phenylazetidine-1-carbonyl)spiro[3.3]heptan-2-yl)urea] | – | –
10.6 µM | 38.5 µM | CN(C)c1ccccc1C(=O)NC1CC2(CC(NC(=O)NCc3ccc(Cl)cc3)C2)C1 (centres unmarked) [Compound 209, N-(6-(3-(4-chlorobenzyl)ureido)spiro[3.3]heptan-2-yl)-2-(dimethylamino)benzamide] | – | –
4.4 µM | 45.2 µM | COc1ccc(CNC(=O)NC2CC3(C2)CC(C(=O)NC2CC(c4ccncc4)C2)C3)cc1 (centres unmarked) [Compound 78, 6-(3-(4-methoxybenzyl)ureido)-N-(3-(pyridin-4-yl)cyclobutyl)spiro[3.3]heptane-2-carboxamide] | – | –
5.0 µM | 53.5 µM | COc1ccc(CNC(=O)NC2CC3(C2)CN(C(=O)Cc2ccccc2C(F)(F)F)C3)cc1 [Compound 41, 1-(4-methoxybenzyl)-3-(2-(2-(2-(trifluoromethyl)phenyl)acetyl)-2-azaspiro[3.3]heptan-6-yl)urea] | – | –
3.0 µM | 14.2 µM | COc1ccc(CNC(=O)NC2CC3(C2)CN(S(=O)(=O)CCc2ccccc2Cl)C3)cc1 [Compound 118, 1-(2-((2-chlorophenethyl)sulfonyl)-2-azaspiro[3.3]heptan-6-yl)-3-(4-methoxybenzyl)urea] | – | –
6.0 µM | 8 µM | O=C(NCc1ccc(Cl)cc1)NC1CC2(CC(CS(=O)(=O)c3ccccc3)C2)C1 (centres unmarked) [Compound 352, 1-(4-chlorobenzyl)-3-(6-((phenylsulfonyl)methyl)spiro[3.3]heptan-2-yl)urea] | – | –
7.2 µM | 35.1 µM | COc1ccc(CNC(=O)NC2CC3(C2)CC(C(=O)NCc2ccc(C#N)cc2F)C3)cc1 (centres unmarked) [Compound 77, N-(4-cyano-2-fluorobenzyl)-6-(3-(4-methoxybenzyl)ureido)spiro[3.3]heptane-2-carboxamide] | – | –

Further lines, the compound ahead of its results:

SMILES | AC1.4 Human [1] | EC50 [2] | EC50 | EC50 (read-out: EC50 Human, Table A, human recombinant NAMPT, NMN formation, 60 min)
COc1ccc(CNC(=O)NC2CC3(C2)CC(C(=O)N[C@@H](C)c2ccccc2)C3)cc1 (stereo partly drawn) [Compound 47, (S)-6-(3-(4-methoxybenzyl)ureido)-N-(1-phenylethyl)spiro[3.3]heptane-2-carboxamide] | 6.5 µM | – | 40.6 µM | –
O=C1CC(C(=O)N2CCC(CCCCNC(=O)NCc3ccc(Cl)cc3)CC2)CCN1 (centres unmarked) [Compound 301, 1-(4-chlorobenzyl)-3-(4-(1-(2-oxopiperidine-4-carbonyl)piperidin-4-yl)butyl)urea] | 2.7 µM | 26.3 µM | – | –
COc1ccc(CNC(=O)NC2CC3(C2)CC(C(=O)N2CCN(C)CC2)C3)cc1 (centres unmarked) [Compound 230, 1-(4-methoxybenzyl)-3-(6-(4-methylpiperazine-1-carbonyl)spiro[3.3]heptan-2-yl)urea] | 1.8 µM | 30.9 µM | – | –
CC(C)(C)OC(=O)N1CCC2(CC1)CC2CNC(=O)NCc1cnco1 (centres unmarked) [Compound 30, tert-butyl 1-((3-(oxazol-5-ylmethyl)ureido)methyl)-6-azaspiro[2.5]octane-6-carboxylate] | – | 37.9 µM | – | –
COC(=O)C1CC2(CC(NC(=O)NCc3ccc(Cl)cc3)C2)C1 (centres unmarked) [Compound 168, methyl 6-(3-(4-chlorobenzyl)ureido)spiro[3.3]heptane-2-carboxylate] | 9.5 µM | – | – | 39.3 µM
COc1ccc(CNC(=O)NC2CC3(C2)CN(C(=O)Cc2ccccc2F)C3)cc1 [Compound 38, 1-(2-(2-(2-fluorophenyl)acetyl)-2-azaspiro[3.3]heptan-6-yl)-3-(4-methoxybenzyl)urea] | 13.7 µM | – | 43.7 µM | –
COc1ccc(CNC(=O)NC2CC3(C2)CC(C(=O)N2CCN(Cc4ccccn4)CC2)C3)cc1 (centres unmarked) [Compound 125, 1-(4-methoxybenzyl)-3-(6-(4-(pyridin-2-ylmethyl)piperazine-1-carbonyl)spiro[3.3]heptan-2-yl)urea] | 7.9 µM | 51.2 µM | – | –
COc1ccc(CNC(=O)NC2CC3(C2)CN(C(=O)c2ccc(=O)n(C)c2)C3)cc1 [Compound 144, 1-(4-methoxybenzyl)-3-(2-(1-methyl-6-oxo-1,6-dihydropyridine-3-carbonyl)-2-azaspiro[3.3]heptan-6-yl)urea] | 16.0 µM | 54 µM | – | –
CN1CC(C(=O)N2CCC(CCCCNC(=O)NCc3ccc(Cl)cc3)CC2)CC1=O (centres unmarked) [Compound 304, 1-(4-chlorobenzyl)-3-(4-(1-(1-methyl-5-oxopyrrolidine-3-carbonyl)piperidin-4-yl)butyl)urea] | 1.7 µM | 10.6 µM | – | –
COc1ccc(CNC(=O)NC2CC3(C2)CC(C(=O)N2CCC[C@@H]2c2cccnc2)C3)cc1 (stereo partly drawn) [Compound 59, (R)-1-(4-methoxybenzyl)-3-(6-(2-(pyridin-3-yl)pyrrolidine-1-carbonyl)spiro[3.3]heptan-2-yl)urea] | 11.2 µM | 40.5 µM | – | –
COc1ccc(CNC(=O)NC2CC3(C2)CN(C(=O)CCc2ccccc2Cl)C3)cc1 [Compound 135, 1-(2-(3-(2-chlorophenyl)propanoyl)-2-azaspiro[3.3]heptan-6-yl)-3-(4-methoxybenzyl) urea] | 3.7 µM | – | 38.5 µM | –
CC(C)(C)OC(=O)NC1CC2(CC(NC(=O)NCc3cnco3)C2)C1 (centres unmarked) [Compound 11, tert-butyl (6-(3-(oxazol-5-ylmethyl)ureido)spiro[3.3]heptan-2-yl)carbamate] | 11.5 µM | – | – | –
COc1ccc(CNC(=O)NC2CC3(C2)CN(C(=O)C2CCCN(C(=O)OC(C)(C)C)C2)C3)cc1 (centres unmarked) [Compound 136, tert-butyl 3-(6-(3-(4-methoxybenzyl)ureido)-2-azaspiro[3.3]heptane-2-carbonyl)piperidine-1-carboxylate] | 9.8 µM | 57.7 µM | – | –
COc1ccc(CNC(=O)NC2CC3(C2)CC(C(=O)N2CCN(Cc4cnn(C)c4)CC2)C3)cc1 (centres unmarked) [Compound 123, 1-(4-methoxybenzyl)-3-(6-(4-((1-methyl-1H-pyrazol-4-yl)methyl)piperazine-1-carbonyl)spiro[3.3]heptan-2-yl)urea] | 2.8 µM | 51.5 µM | – | –
Cc1ncccc1CC(=O)N1CCC(CCCCNC(=O)NCc2ccc(Cl)cc2)CC1 [Compound 310, 1-(4-chlorobenzyl)-3-(4-(1-(2-(2-methylpyridin-3-yl)acetyl)piperidin-4-yl)butyl)urea] | 0.8 µM | 4.1 µM | – | –
CC(C)(C)OC(=O)N1CCC(NC(=O)NCc2ccc(C(N)=O)cc2)CC1 [Compound 5, tert-butyl 4-(3-(4-carbamoylbenzyl)ureido)piperidine-1-carboxylate] | – | 48.6 µM | – | –
